pEC50: −log10 of the molar value. “Also recorded” adds a separate entry of the source. Structures can show the parent of a compound that is named as a salt. Where two headings read alike, the source gives them in different places.

We go through 14 compounds from patent US5445941A, “Method for screening anti-osteoporosis agents” (Eli Lilly and Company, priority 1993, dated 1995).

For data set [1], the system named is TGFβ-3 promoter. The data set can be described thus: Dose response of TGFβ-3 promoter (pB-301) CAT induction in MG63 cells with pRSVER. Conditions: for CAT activity: 24 h, vehicle 0.85. As for the experimental part:
For each group of twelve cultures, the particular estrogen or antiestrogen compound was tested in replicate cultures at […], varying in tenfold increments from 10^-9 M to 10^-5 M, as well as one set of replicate cultures treated with vehicle only (for a total of twelve cultures per experimental treatment). Hormones were dissolved in ethanol and applied to the cultures in media as described above. The four estrogens and antiestrogens tested were:
a. 17β-estradiol (Sigma Chemical Corp., St. Louis, Mo.);

The test system of data set [2] is TGFβ-3 promoter. The data set can be described thus: Comparative induction of reporter gene from TGFβ-3 promoter (pB-301, pRSVER, MG63) by raloxifene and related compounds. The data set is classed as cell-based, human. The settings on record: for reporter gene expression: 0 M 0.61; for induction of reporter gene expression (in words): MG63 cells.
The subject of another data set is uterotropic activity. Conditions: ovariectomized rats; cited from earlier work.
The subject of data set [3] is TGFβ secretion by human fetal fibroblasts. The settings on record: absence of estrogen receptor; cited from earlier work.
Data set [4] deals with osteoblast enriched bone cell cultures. The settings on record: relative to TGFβ-1; cited from earlier work.
The next data set deals with TGFβ-1. Conditions: three months of treatment; cited from earlier work.
The test system of another data set is TGFβ-2 mRNA. Conditions: T-47D and MDA-MB-231; cited from earlier work.
The conditions of data set [5]: cited from earlier work; for bone density (in words): breast cancer patients.
A further data set concerns TGFβ-1 promoter. The experiment in a line: CAT reporter expression, TGFβ-1 promoter (phTG12), MG63 cells cotransfected with pRSVER.
The subject of the next data set is TGFβ-2 promoter. The experiment in a line: CAT reporter expression, TGFβ-2 promoter (pTGF-1), MG63 cells cotransfected with pRSVER.
Data set [6] deals with TGFβ-3 promoter. The data set can be described thus: CAT reporter expression, TGFβ-3 promoter (pB-499), MG63 cells cotransfected with pRSVER.
Protocol: (§1) Co-transfection experiments were performed in MG63 (human osteosarcoma) cells, using the ProFection Mammalian Transfection System (Promega). […] The cells were then refed with fresh 3:1 media containing 10% csFBS. Compounds to be evaluated for their ability to modulate reporter gene expression were added at the appropriate times and assayed as described below.
(§2) Cultures of MG63 cells were transiently co-transfected with pRSVER plasmid and either phTG12, pTGF-1, or pB2-499 using the ProFection system (Promega). For each transfected cell culture, DNA-containing calcium phosphate precipitates were added dropwise to each culture dish and mixed thoroughly in the media. The pH of the media was carefully maintained between pH 7.2 and pH 7.4. Transfected cell cultures were then incubated overnight in a 5% CO2 atmosphere at 37° C. For all cultures, the precipitate was removed after overnight incubation by aspirating the media from the culture dishes, followed by rinsing each dish twice with D-PBS. For each cotransfected cell line, the buffer was replaced with 10 ml fresh medium containing 10% csFBS and one of the following compositions:
(§3) a. 10 μl ethanol (hormone vehicle)=control;
(§4) b. 10 μl 17β-estradiol (Sigma) ("estradiol") at a concentration of 10^-4 M in ethanol;
(§5) d. 10 μl Tamoxifen (Sigma) at a concentration of 10^-4 M in ethanol.
(§6) After 24 h incubation with these hormonal preparations (or the vehicle control), cells were washed twice with D-PBS. The cells were then scraped from the culture dishes using a rubber policeman and 1 ml of D-PBS. Cells were collected by centrifugation at 8,000 rpm for 2 minutes in a tabletop centrifuge (MicroMax Model, IEC, Newark, N.Y.). The supernatant was removed and the cell pellets were resuspended in 150 μL of a 0.25M Tris-HCl solution (pH 7.8). Cells were lysed by three cycles of freezing in a dry ice/ethanol bath and thawing in a water bath at 37° C. water bath (for 3 minutes each cycle). Lysed cell preparations were centrifuged at 15,000 rpm for 5 minutes at 4° C. to remove cell debris. Supernatants containing the soluble cell lysate were transferred to a new set of tubes for assaying chloramphenicol acetyltransferase (CAT) activity.
(§7) Before performing CAT assays on such cell lysates, the protein content of each lysate was first determined using a commercially-available assay (BioRad Laboratories, Richmond, Calif.). […]
Data set [7] relates to estrogen responsive elements. Conditions: in vitro; cited from earlier work.
Data set [8] concerns human endometrial cancer cell line (Ishikawa). Conditions: cited from earlier work.
Data set [9] relates to human endometrial cancer cell line (HEC-50). Conditions: cited from earlier work.
In data set [10] the test system is osteoblasts and osteoclasts. The settings on record: cited from earlier work.
Data set [11] deals with mesenchymal cells and epithelial cells; fibroblasts, macrophages and smooth muscle cells. Conditions: cited from earlier work.
Setting [12] is: Homo sapiens, MG-63, 24 h, read-out: Fold Ind.

Protocol for TGFβ-1 promoter: as §1, §2, §3, §4, §5, §6
Before performing CAT assays on such cell lysates, the protein content of each lysate was first determined using a commercially-available assay (BioRad Laboratories, Richmond, Calif.). An amount of each cell lysate containing 100 μg total protein was then mixed with CAT assay buffer (0.4M Tris-HCl (pH 7.8)/ 0.5 mM acetyl-CoA (Boehringer Mannheim)/ 0.1 μCi D-threo-(dichloroacetyl-1,2-[^14 C]-chloramphenicol) for 15 hours. After this incubation, reactions were stopped by vigorously extracting the reaction mixture with 900 μL ethyl acetate. The organic and aqueous phases were separated by brief centrifugation at 14,000 rpm for 1 minute, and approximately 800 μL of the organic phase was transferred to a new set of tubes. Ethyl acetate was evaporated to concentrate the CAT-catalyzed reaction products.
Acetylated and unacetylated chloramphenicol species were resolved by thin layer chromatography using a mixture of 95:5 (v/v) chloroform:methanol as the ascending buffer.
Protocol for TGFβ-2 promoter: as §1, §2, §3, §4, §5, §6, §7

Turning to `O=C(c1ccc(OCCN2CCCCC2)cc1)c1c(-c2ccc(O)cc2)sc2cc(O)ccc12` [raloxifene], the “ED50 (in words)” value in the data set on TGFβ-3 promoter [1] (MG63 cells) is listed as “nanomolar concentrations”.
Turning to `O=C(c1ccc(O)cc1)c1sc2ccc(O)cc2c1-c1ccccc1` [LY112676, (p-hydroxyphenyl) 5-hydroxy-3-phenylbenzo[B]thien-2-yl ketone], the reporter gene expression is reported as 3.8 in the data set with TGFβ-3 promoter [2] (10^-5 M); 1.7 in the data set on TGFβ-3 promoter [2] (10^-6 M); 0.5 in the data set on TGFβ-3 promoter [2] (10^-7 M); 0.6 in the data set with TGFβ-3 promoter [2] (10^-8 M); 0.6 in the data set with TGFβ-3 promoter [2] (10^-9 M). Moreover, the “in vivo uterotropic activity (in words)” value in the data set on uterotropic activity is given as “uterotropic”.
Regarding `CN(C)CCOc1ccc(/C(=C(/CCCl)c2ccccc2)c2ccccc2)cc1` [toremifene], the “TGFβ secretion (in words)” value in data set [3] was “induce human fetal fibroblasts to secrete TGFβ”.
As to “TGFβ-3: isoform of transforming growth factor β”, the “mitogenesis, collagen synthesis and alkaline phosphatase activity (in words)” value in [4] is reported as “three to five fold higher rate than TGFβ-1”.
As for `CCCCN(C)C(=O)CCCCCCCCCC[C@@H]1Cc2cc(O)ccc2[C@H]2CC[C@]3(C)[C@@H](O)CC[C@H]3[C@H]12` [ICI], the CAT activity in the data set on TGFβ-3 promoter [1] (10^-5 M) turned out to be 6.5; with TGFβ-3 promoter [1] (10^-6 M), 15.2; in the data set with TGFβ-3 promoter [1] (10^-7 M), 10.9; in the data set on TGFβ-3 promoter [1] (10^-8 M), 0.88; in the data set on TGFβ-3 promoter [1] (10^-9 M) it was 0.89. Moreover, in the data set on TGFβ-3 promoter [1] (Homo sapiens, MG-63, 24 h, read-out: ED50), the pEC50 is 7.00. The “TGFβ-3 promoter activation (in words)” value with TGFβ-3 promoter [1] (MG63 cells) is reported as “much less active at high concentrations (10^-5 M)”.
On to `CC/C(=C(\c1ccccc1)c1ccc(OCCN(C)C)cc1)c1ccccc1` [tamoxifen], for which the CAT activity in the data set on TGFβ-3 promoter [1] (10^-5 M) is listed as 13.5; with TGFβ-3 promoter [1] (10^-6 M), 2.9; in the data set on TGFβ-3 promoter [1] (10^-7 M), 0.98; in the data set with TGFβ-3 promoter [1] (10^-8 M), 1.2; in the data set on TGFβ-3 promoter [1] (10^-9 M), 0.91. The “TGFβ-3 promoter activation (in words)” value with TGFβ-3 promoter [1] (MG63 cells) was “activates the TGFβ-3 promoter only at high levels (i.e., greater than micromolar)”. In addition, the “TGFβ secretion (in words)” value in [3] is on record as “induce human fetal fibroblasts to secrete TGFβ”. Moreover, the “induction of extracellular TGFβ-1 (in words)” value in the data set with TGFβ-1 is reported as “correlated with induction of extracellular TGFβ-1”. Moreover, the “TGFβ-2 mRNA expression (in words)” value in the data set with TGFβ-2 mRNA is listed as “did not exhibit the same effect”. Also, the “bone density (in words)” value in data set [5] was “appear to be restricted to the lumbar spine, with bone loss being reported in the radius in some breast cancer patients”; in data set [5] (listed as Tamoxifen) it was “increase bone density in breast cancer patients”. Further, the “serum cholesterol (in words)” value in [5] (healthy women and women with breast cancer) is recorded as “reduce the growth the serum cholesterol”. Also, the “growth of breast tumors (in words)” value in data set [5] (human, in vivo) is on record as “reduce the growth of breast tumors”. Moreover, in data set [5] (human, in vivo), the “serum concentration of LDLs (in words)” value is reported as “reduce serum concentration of LDLs”. The “weight gain (in words)” value in data set [5] (post-menopausal women) is reported as “contribute to weight gain”. In addition, the fold induction at 0.1 µM in the data set on TGFβ-1 promoter (setting [12]) stood at 1.1; in the data set with TGFβ-2 promoter (setting [12]), 2.6; in the data set with TGFβ-3 promoter [6] (setting [12]), 2.6. The “Act. (relative CAT activity)” value with TGFβ-1 promoter (TGFβ-1 promoter, 10 μl of 10^-4 M in 10 ml medium, 24 h, control […]) is on record as 6.9; in the data set on TGFβ-2 promoter (TGFβ-2 promoter, 10 μl of 10^-4 M in 10 ml medium, 24 h, control 0.8), 2.0; in the data set with TGFβ-3 promoter [6] (TGFβ-3 promoter, 10 μl of 10^-4 M in 10 ml medium, 24 h, control 0.7), 1.9.
With `CC(C)(C)C(=O)Oc1ccc(-c2sc3cc(OC(=O)C(C)(C)C)ccc3c2C(=O)c2ccc(OCCN3CCCCC3)cc2)cc1` [LY177366, [6-(2,2-dimethyl-1-oxopropoxy)-2-[4-(2,2-dimethyl-1-oxopropoxy)phenyl]benzo[B]thien-3-yl][4-[2-1-piperidinyl)ethoxy]phenyl]methanone hydrochloride], the reporter gene expression in the data set with TGFβ-3 promoter [2] (10^-5 M) is recorded as 6.1; in the data set with TGFβ-3 promoter [2] (10^-6 M) it was 7.9; with TGFβ-3 promoter [2] (10^-7 M), 10.2; in the data set with TGFβ-3 promoter [2] (10^-8 M) it was 7.9; with TGFβ-3 promoter [2] (10^-9 M), 1.1. For the same compound, the “induction of reporter gene expression (in words)” value in the data set with TGFβ-3 promoter [2] is recorded as “most potent inducer”. The “in vivo uterotropic activity (in words)” value in the data set on uterotropic activity is on record as “anti-uterotropic”.
Consider `O=C(c1ccc(OCCN2CCCC2)cc1)c1c(-c2ccc(O)cc2)sc2ccccc12` [LY113526, 2-(p-hydroxyphenyl)benzo[B]thien-3-YL p-[2-(1-pyrrolidinyl)ethoxy]phenyl ketone], for which the reporter gene expression with TGFβ-3 promoter [2] (10^-5 M) came to 2.1; with TGFβ-3 promoter [2] (10^-6 M) it was 2.0; in the data set on TGFβ-3 promoter [2] (10^-7 M), 0.6; in the data set on TGFβ-3 promoter [2] (10^-8 M) it was 0.7; in the data set on TGFβ-3 promoter [2] (10^-9 M), 0.7. Also, the “in vivo uterotropic activity (in words)” value with uterotropic activity is “anti-uterotropic”.
As for `O=C(c1ccc(O)cc1)c1sc2ccccc2c1-c1ccccc1` [LY81099, p-hydroxyphenyl 3-phenylbenzo[B]thien-2-yl ketone], the reporter gene expression with TGFβ-3 promoter [2] (10^-5 M) is given as 2.3; in the data set on TGFβ-3 promoter [2] (10^-6 M) it was 0.9; in the data set with TGFβ-3 promoter [2] (10^-7 M) it was 0.7; in the data set on TGFβ-3 promoter [2] (10^-8 M), 0.5; with TGFβ-3 promoter [2] (10^-9 M) it was 0.6. In addition, the “in vivo uterotropic activity (in words)” value in the data set with uterotropic activity is given as “uterotropic”.
In the case of `O=C(c1ccc(OCCN2CCCCCC2)cc1)c1c(-c2ccc(O)cc2)sc2cc(O)ccc12` [LY139482, [4-[2-(hexahydro-1H-azepin-1-yl)ethoxy]phenyl][6-hydroxy-2-(4-hydroxyphenyl)benzo[B]thien-3-yl]methanone], the reporter gene expression in the data set with TGFβ-3 promoter [2] (10^-5 M) is recorded as 2.0; in the data set on TGFβ-3 promoter [2] (10^-6 M), 2.5; in the data set on TGFβ-3 promoter [2] (10^-7 M) it was 2.7; with TGFβ-3 promoter [2] (10^-8 M), 2.5; in the data set with TGFβ-3 promoter [2] (10^-9 M), 0.8. The “in vivo uterotropic activity (in words)” value in the data set on uterotropic activity is “anti-uterotropic”.
On to `COc1ccc(C2=C(C(=O)c3ccc(OCCN4CCCC4)cc3)c3ccccc3CC2)cc1` [LY133314, [3,4-dihydro-2-(4-methoxyphenyl)-1-naphthanlenyl][4-[2-(1-pyrrolidinyl)ethoxy]phenyl]methanone, methanesulfonic acid salt], for which the reporter gene expression in the data set on TGFβ-3 promoter [2] (10^-5 M) stood at 1.0; in the data set on TGFβ-3 promoter [2] (10^-6 M), 6.6; in the data set on TGFβ-3 promoter [2] (10^-7 M) it was 3.1; in the data set with TGFβ-3 promoter [2] (10^-8 M), 0.7; with TGFβ-3 promoter [2] (10^-9 M) it was 0.7. Besides, the “in vivo uterotropic activity (in words)” value in the data set with uterotropic activity is recorded as “uterotropic”.
Consider `CC/C(=C(\c1ccc(O)cc1)c1ccc(OCCN(C)C)cc1)c1ccccc1` [hydroxytamixofen], for which the “binding of estrogen receptor complex to estrogen responsive elements (in words)” value in data set [7] was “bind in vitro to DNA binding domains called estrogen responsive elements”.
Take “p-hydroxyphenyl3-(-hydroxyphenyl)benzo[B]thien-2-yl ketone [LY98005]”: the reporter gene expression came out at 0.5 with TGFβ-3 promoter [2] (10^-5 M); 0.4 in the data set with TGFβ-3 promoter [2] (10^-6 M); 0.5 in the data set with TGFβ-3 promoter [2] (10^-7 M); 0.5 in the data set on TGFβ-3 promoter [2] (10^-8 M); 0.4 in the data set with TGFβ-3 promoter [2] (10^-9 M). Moreover, the “induction of reporter gene expression (in words)” value with TGFβ-3 promoter [2] is reported as “no induction”. The “in vivo uterotropic activity (in words)” value in the data set on uterotropic activity is given as “inert in vivo”.
As for TGFβ, in data set [8], the “cell division (in words)” value is listed as “repressed division”. In [9], the “mitogenic effect (in words)” value is reported as “mitogenic”. Further, the “bone formation / osteoclast effects (in words)” value in [10] was “stimulate osteoblastic bone formation and to inhibit osteoclast formation and osteoclast activities”. Further, the “cell growth, biosynthesis and chemotaxis (in words)” value in [11] is “inhibits the growth of mesenchymal cells and epithelial cells; also recorded: induces biosynthesis of proteoglycans, fibronectins and plasminogen activator; also recorded: chemotactic for fibroblasts, macrophages and smooth muscle cells”.
